# Earlier results as cited in patent US20260201040A1, “TREATMENT OF SICKLE CELL DISEASE” (BioLineRx Ltd., priority 2022, published 2026).
# Test system: CD34+ HSCs
# Conditions: short-acting CXCR4i, alone
smiles,measurement,value
c1cc(CN2CCCNCCNCCCNCC2)ccc1CN1CCCNCCNCCCNCC1 [plerixafor],yield of optimal HSC numbers for gene therapy applications,does not reliably yield optimal HSC numbers
